Drawing on a melting point compilation (Tetko et al.; mined from patent text by program, amines drawn as free bases though some values may be those of a salt), this text covers melting point for 86 compounds.

Usually melting point stands for the temperature of the solid-liquid transition. For `CCCCCCCNC(=O)Nc1ccc(N(C)C)cc1C(=O)NCC1CC2CCC(C1)N2C(c1ccccc1)c1ccccc1` (stereo unspecified), the melting point was found to be 195 °C.
As for `Cc1ccc2c(c1)Cn1nnnc1C(=O)N2`, the melting point lay in the range of 244 to 247 °C.
The same measure for `CC(C)OC(=O)c1ccccc1SN(C(=O)NC(=O)c1ccccc1Cl)c1ccc(OC(F)(F)F)cc1`: 143 to 144 °C; for `Cc1cc(C)cc(N(CCCC(N)=O)Cc2ccc3nc(NCCCN4CCOCC4)n(Cc4cccc5cccnc45)c3c2)c1`: 154 °C; for `IC(I)=C(I)Cn1ncnn1`: 92 to 93 °C.
`NS(=O)(=O)c1cc(CCNC(=O)C=Cc2cccs2)ccc1OCC1CCCO1` (stereo unspecified) gave a melting point of 180 to 185 °C.
As to `O=C(Nc1cccc(C(=O)Nc2nnn[nH]2)c1)NC1N=C(c2ccccc2F)c2ccccc2N(CC(=O)N2CC3CCC(CC3)C2)C1=O` (racemic), the melting point lay in the range of 193 to 196 °C.
Consider `Cc1c(Cc2cccc(C(F)(F)F)c2)sc2c(-c3cc(F)cc(C(=O)NCCO)c3)cccc12`, for which the melting point lay within 151 to 152 °C.
To `COCC1CN(c2ccc(Br)nc2)C(=O)O1` (racemic) belongs 108 to 110 °C.
The same measure for `COC(=O)c1c(C(=O)OC)c(-c2ccc(Cl)cc2)n2c1Cc1ccccc1C2`: 164 to 166 °C; for `CCOC(=O)C(=NOCSC)c1csc(NC=O)n1`: 130 to 131 °C; for `CN(c1ccc(Br)cc1)c1nc(=O)c2cccnc2s1`: 221 to 222 °C.
Regarding `CC(C)Cc1ccc2c(c1O)C(=O)c1c(ccc(CC(C)C)c1O)C2=O`, the melting point lay within 138 to 140 °C.
To `CCOC(=O)c1nn(Cc2ccc(Cl)cc2Cl)c(-c2ccc(Cl)cc2)c1C` belongs 82 °C; to `CC(=O)c1cccc2cc3c(C(C)=O)cccc3cc12`, 185 to 205 °C.
As to `CCOC(=O)c1cnn2c(-c3ccc(CC)cc3)ccnc12`, the melting point was in the range of 101 to 103 °C.
`C=CCN(C(C)=O)c1cccc(-c2ccc3nncn3n2)c1` came in with a melting point of 139 to 142 °C.
With `COc1ccc(CNc2c3c(nc4ccccc24)CCCC3O)cc1` (stereo unspecified), the melting point was in the range of 163 to 165 °C.
Compound `Cn1ccnc1S(=O)(=O)c1ccc(Cl)cc1` had a melting point of 164 to 166 °C.
The same measure for `O=C(O)C1=CC2(CCSCC2)Oc2ccc([N+](=O)[O-])cc21`: 259 to 261 °C; for `CN1CCN(C(=O)Nc2cc(Br)ccc2N2CCc3cc(Br)ccc32)CC1`: 118 to 120 °C; for `CN1C(C(=O)Nc2ccc(F)cc2)=C(O)c2ccc3ccccc3c2S1(=O)=O`: 284 to 285 °C.
In turn, `CCOC(=O)C(CBr)=C1CC(=O)CCC1=N` displayed a melting point of 170 to 175 °C.
The same measure for `CCc1cc(C(F)(C(F)(F)F)C(F)(F)C(F)(F)F)cc(C)c1NC(=O)c1cccc(NC(=O)c2ccc(C#N)cc2C)c1OC` (stereo unspecified): 104 to 105 °C.
The same measure for `N#Cc1cccc(CSc2nnc(-c3ccnc(NC(=O)CCc4ccccc4)c3)o2)c1`: 153 to 154 °C; for `CN(Cc1ccccc1)c1nc(=O)c2cccnc2s1`: 112 to 113 °C.
The compound `COc1cc2c(cc1Cl)CCNC[C@H]2c1ccccc1` showed a melting point of 81 to 82 °C.
In the case of `CC(C)(O)COc1c(-c2ccc(S(N)(=O)=O)cc2)cnn(-c2ccc(F)cc2)c1=O`, the melting point lay within 155 to 158 °C.
`O=S(=O)(NCCO)c1cccc(-c2cc(-c3nc(-c4ccc(C(F)(F)F)cc4)cc(C(F)(F)F)n3)ccn2)c1` gave a melting point of 192 °C.
The same measure for `CO[C@]1(c2cc(F)cc(OCc3ccc4c(ccc(=O)n4C)c3)c2)CCO[C@@H](C)C1`: 91 to 93 °C.
`O=C1CC(C(=O)O)C2(CCCCC2)C1` (stereo unspecified): the melting point is 146 to 147 °C.
The same measure for `O=C(OC1COC(OC(=O)c2ccccc2)CO1)c1ccccc1` (stereo unspecified): 187 to 189 °C; for `CC(COc1ccc(CCO)cc1)NCC(O)c1ccccc1` (stereo unspecified): 93 to 96 °C.
Consider `OC(CCCl)COc1ccccc1` (stereo unspecified), for which the melting point fell in the range of 52 to 54 °C.
To `Cc1ccc(NS(=O)(=O)c2ccc([N+](=O)[O-])cc2)cc1` belongs 170 to 172 °C; to `Cn1cc(CO)c(=O)c2cccc(Cl)c21`, 182 to 184 °C.
As for `O=C(c1ccc(C(F)(F)F)cc1)c1ccc(O)cn1`, the melting point was over 260 °C.
To `CC(=O)CCc1ccc(C(N)=O)cc1` belongs 152 to 154 °C; to `Cc1c(CC(=O)O)oc2ccc(Cc3ccccc3)cc12`, 149 to 150 °C.
The compound `CC1=CC(c2ccc(Cl)cc2)C2=C(CCCC2=O)N1` (stereo unspecified) showed a melting point of 184 to 187 °C.
`COc1ccc(C(C)C)cc1-c1cc(C(=O)OCc2ccccc2)c(OCc2ccccc2)cc1OCc1ccccc1` showed a melting point of 139 to 141 °C.
The same measure for `Cc1cccc(C)c1NCC(=O)N1CCCO1`: 82 to 83 °C.
In the case of `CC(C)c1[nH]n(-c2c(Cl)cc(Cl)cc2Cl)c2nc(Cc3ccc(N=C=O)cc3)nc(=O)c1-2`, the melting point is 233 to 235 °C.
For the compound `O=C(Cl)c1c(Cl)ccc2c1OCCO2`, the melting point was determined as 50 °C.
`CCNC(=O)n1nc(Oc2ncc(C(F)(F)F)cc2Cl)cc1C` had a melting point of 85 to 86 °C.
The same measure for `CCOC(C)O[C@H]1C(=O)N[C@H]1C=Cc1ccccc1` (stereo partly specified): 98 to 99 °C.
To `CCC(C(=O)N(CC)CC)n1cc(Cl)c(-c2ccccc2)n1` (stereo unspecified) belongs 47 to 49 °C; to `Cc1ccc(-c2c(-c3ccc(S(N)(=O)=O)cc3)cnn(-c3ccc(F)c(F)c3)c2=O)cc1F`, 198 to 200 °C.
To `CCCCCCCC[C@H]1C[C@H]1CCCCCCCC(=O)NC(Cc1ccccc1)Cc1ccccc1` (relative stereo) belongs 40 to 45 °C; to `Nc1nc(N2CCOCC2)c2ncn(C3CC(F)C(CO)O3)c2n1` (stereo unspecified), 165 to 167 °C; to `CCc1cccc(CCC(O)c2ccccc2)c1NC(=O)CC1c2ccccc2Oc2ccccc21` (stereo unspecified), 192 to 193 °C.
On to `CCOC(=O)c1cccc(C(OC(=O)Nc2ccc3[nH]ncc3c2)[C@@H]2CCCCN2)c1` (stereo partly specified), for which the melting point stood at 174 °C.
Turning to `Nc1ccc2c(c1)c1ccccc1n2CCC(=O)NCCO`, the melting point lay within 217 to 218 °C.
`O=c1c([N+](=O)[O-])c[nH]c2sccc12` returned a melting point of 288 to 291 °C.
To `O=C(O)c1cc(Cl)n2cnnc2c1` belongs 249 to 251 °C; to `Cc1nnc(-c2ccc3occ(-c4cnn(Cc5ccccc5C(F)(F)F)c4)c3c2)o1`, 165 to 166 °C; to `Nc1ccnn1-c1c(F)cc(C(F)(F)F)cc1Cl`, 87 to 90 °C.
The same measure for `CC(C)C(=O)Nc1ccn2nc(-c3ccccc3)c(-c3ccc(=O)n(C(C)C)n3)c2c1`: 199 to 200 °C; for `CC(=O)O[C@@]12C[C@@H](OC1=O)C(=O)[C@H](O[Si](C)(C)C(C)(C)C)C2`: 134 to 137 °C.
To `O=C1NC(=O)C(Cc2cccs2)N1` (stereo unspecified) belongs 188 to 190 °C; to `CC(=O)c1nc2cc(C(F)(F)F)c(Cl)cc2n1-c1ccc(CCNC(=O)NS(=O)(=O)c2ccc(C)cc2)cc1`, 225 °C; to `c1ccc2c(NC3CCC(Nc4nccc5ccccc45)CC3)nccc2c1` (stereo unspecified), 278 to 280 °C.
For `O=C(O)c1ccc(NCc2cncc3ccccc23)cc1`, the melting point was 237 to 240 °C.
The same measure for `CC1(C)CC(=C(c2ccc(O)cc2)c2ccc(C#CCO)cc2)CC(C)(C)C1`: 141 to 142 °C; for `COc1ccc(COC(=O)CC(=O)Oc2cc(-c3cn4c(n3)sc3ccccc34)ccc2Cl)cc1`: 113 to 115 °C.
The same measure for `CCCC(=O)c1cc(C(=O)O)c(N)cc1C`: 184 to 186 °C; for `COC(=O)C(=O)c1ccc(OCCOc2ccc3ccccc3c2)cc1F`: 135 to 136 °C; for `COC(=O)c1ccc(N2CCN(S(C)(=O)=O)CC2)nc1`: 205 to 207 °C.
The same measure for `CCNc1nc2ccc(CCc3ccc(CN(C)C)o3)cc2o1`: 72 to 73 °C.
`CCC(O)(c1ccc(O)cc1O)c1ccccc1OC` (stereo unspecified) returned a melting point of 141 to 142 °C.
The same measure for `Cn1c(S)nnc1C(O)(c1ccc(Cl)cc1)c1cc2c3c(c1)c(-c1cccc(Cl)c1)cc(=O)n3CO2` (stereo unspecified): 193 °C.
Turning to `CC(C)(C)OC(=O)[C@H]1C[C@@H](S(=O)(=O)c2ccccc2F)[C@@H](c2ccccc2F)N1` (racemic), the melting point is 202 °C.
The same measure for `O=c1cnn(-c2ccc(Cl)c(C(c3ccc(Cl)cc3)c3nc(-c4ccccc4)c(CNC(=S)Nc4ccccc4)s3)c2Cl)c(=O)[nH]1` (stereo unspecified): 159 °C; for `CC(C)n1nc(-c2c(OCCN3C(=O)c4ccccc4C3=O)nc(N)nc2-c2ccccc2)ccc1=O`: 232 °C.
The same measure for `Cc1cn(C(C)C(=O)N(C)C)nc1-c1ccccc1` (stereo unspecified): 87 to 89 °C.
For the compound `COc1cccc(OC2CN([C@H]3CC[C@@H](c4cc5cc(C#N)ccc5[nH]4)CC3)C2)c1`, the melting point fell in the range of 126 to 127 °C.
The same measure for `C/C(NC1CCCCCC1)=C(\C#N)C(N)=S`: 132 to 134 °C; for `CC1=C(CC(=O)O)c2cc(F)c(F)cc2C1=Cc1ccc(S(C)=O)cc1` (stereo unspecified): 200 to 210 °C.
As to `Cc1ccc(C(=O)N(c2ccccc2)c2ccc(OCCN(C)C)cc2)cc1`, the melting point fell in the range of 74.5 to 77.5 °C.
For `Cc1cccc(-c2sc(N)nc2-c2ccc3c(c2)OCO3)n1`, the melting point was 170 to 172 °C.
The same measure for `COC1(C)C(=O)C(c2ccccc2)=C1c1ccc(S(C)(=O)=O)cc1` (stereo unspecified): 145 °C; for `COc1ccccc1N1Sc2ccccc2C(c2ccccc2)C1=O` (stereo unspecified): 133 °C; for `CC(c1ccc2c(c1)Sc1ccccc1CC2)N(O)C(N)=O` (stereo unspecified): 166 to 168 °C.
To `CC(=O)Sc1cc(-c2ccc(C(F)(F)F)n(C)c2=O)c(F)cc1Cl` belongs 91 to 92 °C; to `COc1ccc2c(c1)sc1nc(Nc3ccccc3)nc(=Nc3ccccc3)n12`, 213 to 214 °C; to `O=C(NO)c1cc2c(Oc3ccc(Cl)cc3)cncc2s1`, 145 °C.
